From patent publication US9327020B2, “Trisaccharide derivates, and their use as adjuvants” (Immunovo B.V., priority 2010, dated 2016)

Legend:
Type in all cases: in vivo, rat
[1] = system: GnRH; experiment: GnRH specific antibody titers by ELISA in serum of rats immunized with GnRH-KLH conjugate plus adjuvant; conditions: for GnRH antibody titers, dose dependence: male Wistar rats, adjuvant 0.008-8 mg per dose, GnRH-KLH conjugate, FIG. 4A-B; for GnRH antibody titers versus squalane emulsion only (NS): rats that received 8 mg saccharide compound, FIG. 4C; for GnRH antibody titers versus adjuvant without saccharide (NS, group 11): rats treated with 0.08-8 mg sulpho-lipo-trisaccharide
Procedure: (§1) The sulpho-lipo based adjuvants were tested in different doses varying from 0.008-8 mg per dose. The adjuvants were tested in combination with a GnRH-KLH conjugate with 0.7 μg conjugated GnRH per dose. Adjuvanticity of the adjuvants was compared with the positive control adjuvant, sulpho-lipo-sucrose (disaccharide with one sulphate ester group and seven lauroyl acid ester groups, S1L7-Su) and with negative control adjuvant consisting of an squalane-in-water emulsion without saccharide compound and one group receiving PBS only.
Vaccines 1-13 were formulated by adding equal volume of adjuvant (comprising the saccharide compounds as shown in table 2) to the water phase (containing 0.7 μg conjugated GnRH). Vaccine 14 consists of PBS only. The following vaccines were prepared:
(§2) Male Wistar rats, 10 weeks of age, were housed with 3 rats per cage. Rats had ad libitum access to food en water. Rats were immunized at day 0, 14 and 28, according to the experimental design (Table 2) with 400 μl vaccine comprising 200 μl water phase and 200 μl adjuvant. Two intramuscular injections (100 μl each) were injected at the left and right inner thigh and 2×100 μl was injected subcutaneously in the neck region. Each group consists of 5 rats.
(§3) Blood samples for serum were collected from all animals prior to the immunizations and at day 41 and 56
GnRH specific antibodies were measured by ELISA. Plates (96 wells) were precoated with 0.2% glutardialdehyde in phosphate buffer (pH 5) for 3 hours at room temperature, washed with 0.1 M phosphate buffer (pH 8) and coated with 100 μl per well of a solution containing 10 μg GnRH (Pepscan Presto, Lelystad, The Netherlands) per ml phosphate buffer (pH 8) and incubated for 3 hours at 37° C. Coated plates were washed with 0.05% Tween-80. Serum samples were diluted (1/10) in PEM (1% Tween-80 with 4% horse serum). This dilution was further diluted in the 96-well plate (100 μl per well, 8 steps) and incubated 1 hour at 37° C. After washing with 0.05% Tween-80, 100 μl of goat-anti-rat antiserum conjugated with peroxidase in PEM was added to the wells. Plates were incubated for 1 h at 37° C. and washed 12 times with 0.05% Tween-80. Subsequently, 150 μl of a substrate solution containing 2,2-azino-bis-(3-benzthiazoline-6-sulphonic acid) (ABTS) plus H2O2 was added to the wells of the plates. Plates were incubated for 45 minutes at ambient room temperature and absorbance was measured at 405 nm. Antibody titer was expressed as the 10 log of the dilution factor that gives an optical density of 4 times background (approx. 100).

[2] = system: testosterone; experiment: Serum testosterone levels (Testosterone EIA) of immunized rats
Procedure: as §1, §2, §3
Serum testosterone levels were measured using a commercially available Testosterone EIA (Beckman Coulter, Woerden, The Netherlands) according to the instructions of the manufacturer.

[3] = Injection site reactions (tissue swelling) after immunization; conditions: 8 mg
Procedure: as §2
Before vaccination the injection sites were assessed for the presence of abnormalities or existing local reactions. If such abnormalities or local reactions were absent, the animal was injected on that site. After each immunization, injection sites were inspected for tissue swelling. Size of subcutaneous injection sites was measured (diameter in mm). Since the intramuscular injection site reactions in the hind leg is difficult to determine, only the presence of intramuscular injections sites (tissue swelling) was determined and expressed in arbitrary values (present=10 mm, not present=0 mm) Scores of injection site reactions were added up per rat for the four injection sites at each inspection, means per group were calculated The results thereof are presented in FIG. 7.

[4] = Rise of mean body temperature (rectal) after immunization; conditions: 8 mg; for Mean body temperature (MBT): FIG. 6C
Procedure: as §2
At least once daily clinical observations were made in all animals. Mean body temperature (MBT) was determined for all animals before and after each immunization by rectal temperature. Mean body temperature per group (MBT) are depicted as to preimmunization levels FIG. 6.

[5] = from 0.08 mg sulpho-lipo-trisaccharide onwards, FIG. 5A-B

| Injection site reactions, course of size ([3]; FIG. 7C) | Injection site reactions, size relative to sulpho-lipo-trisaccharides ([3]; FIG. 7C) | Mean body temperature (MBT) ([4]; 21 hours after vaccination) | Mean body temperature (MBT), any increase ([4]; after immunization) | Compound | GnRH antibody titers, dose dependence [1] | GnRH antibody titers versus squalane emulsion only (NS) [1] | GnRH antibody titers versus adjuvant without saccharide (NS, group 11) [1] | Serum testosterone levels [2, 5] | Injection site reactions at final inspection ([3]; 5 days after immunization) | Mean body temperature (MBT) ([4]; 3 hours post vaccination) | Adverse effects at the site of injection [3] | Serum testosterone levels ([2]; 8 mg, FIG. 5C) |
| --- | --- | --- | --- | --- | --- | --- | --- | --- | --- | --- | --- | --- |
| – | – | – | – | Sulpho-Lipo-Maltotriose [Example S1L10-Ma] | dose dependent antibody titers against GnRH | substantially higher | substantially higher | dramatic decline of serum testosterone levels | – | – | – | – |
| increased in size up to day 4 | more than 4 times | still increased | – | sulpho-lipo-sucrose [Example S1L7-Su-8] | – | – | – | – | still significant injection site reactions were present | slightly higher increase in MBT than the trisaccharide compounds | – | – |
| – | – | – | did not induce any increase in MBT | CCCCCCCCCCCC(=O)OC[C@H]1O[C@H](OC[C@H]2O[C@H](O[C@]3(COC(=O)CCCCCCCCCCC)O[C@H](COC(=O)CCCCCCCCCCC)[C@@H](OC(=O)CCCCCCCCCCC)[C@@H]3OC(=O)CCCCCCCCCCC)[C@H](OC(=O)CCCCCCCCCCC)[C@@H](OC(=O)CCCCCCCCCCC)[C@@H]2OC(=O)CCCCCCCCCCC)[C@H](OC(=O)CCCCCCCCCCC)[C@@H](OC(=O)CCCCCCCCCCC)[C@H]1OC(=O)CCCCCCCCCCC [Example L11-Ra, Lipo-Raffinose] | – | substantially higher | – | – | – | – | did not induce any adverse effects at the site of injection | induced decreasing testosterone levels |
| – | – | – | – | Sulpho-Lipo-Raffinose [Example S1L10-Ra] | dose dependent antibody titers against GnRH | substantially higher | substantially higher | dramatic decline of serum testosterone levels | – | – | – | – |
